Assay results as given in ChEMBL document CHEMBL6109156, “Discovery of Dual PD-L1/HDAC3 Inhibitors for Tumor Immunotherapy” (J Med Chem, 2025).
pIC50: −log10 of the molar value. Active and inactive are the calls of the source. No cut-off for these calls is given here.

Columns and labels:
Histone deacetylase 3 [1] = biological target: T1, Histone deacetylase 3 (Homo sapiens, UniProt O15379); assay: Inhibition of human recombinant HDAC3 using Ac-Leu-Gly-Lys (Ac)-AMC as substrate at 1 uM preincubated for 10 mins followed by substrate addition and measured after 45 mins by TECAN microtiter plate reader analysis relative to control; settings: time 55.0 min
T1 sequence (O15379 whole entry): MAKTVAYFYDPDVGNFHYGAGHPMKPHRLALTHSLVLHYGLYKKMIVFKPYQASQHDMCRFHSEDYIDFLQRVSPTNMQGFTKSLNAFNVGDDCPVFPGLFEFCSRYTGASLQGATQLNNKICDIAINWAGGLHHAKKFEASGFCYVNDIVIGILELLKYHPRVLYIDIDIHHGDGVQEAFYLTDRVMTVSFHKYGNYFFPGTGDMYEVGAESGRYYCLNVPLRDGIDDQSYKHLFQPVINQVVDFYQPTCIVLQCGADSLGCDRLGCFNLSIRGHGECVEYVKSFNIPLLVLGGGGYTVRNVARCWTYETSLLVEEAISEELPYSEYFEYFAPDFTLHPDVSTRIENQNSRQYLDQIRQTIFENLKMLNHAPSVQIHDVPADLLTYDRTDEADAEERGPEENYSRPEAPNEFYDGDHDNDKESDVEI

[2] = biological target: T2, Programmed cell death protein 1/Programmed cell death 1 ligand 1 (Homo sapiens) (UniProt Q15116+Q9NZQ7); assay: Inhibition of PD-1/PD-L1 (unknown origin) interaction assessed as inhibition rate at 0.1 uM by HTRF assay relative to control; format: protein-complex assay
[3] = biological target: T2, Programmed cell death protein 1/Programmed cell death 1 ligand 1 (Homo sapiens); assay: (§1) Inhibition of PD-1/PD-L1 (unknown origin) interaction assessed as inhibition rate at 1 uM by HTRF assay relative to control; format: protein-complex assay
[4] = biological target: T3, Protein deacetylase HDAC6 (Homo sapiens, UniProt Q9UBN7); assay: Inhibition of human recombinant HDAC6 using Ac-Leu-Gly-Lys (Ac)-AMC as substrate preincubated for 10 mins followed by substrate addition and measured after 45 mins by TECAN microtiter plate reader analysis
T3 sequence (Q9UBN7 whole entry): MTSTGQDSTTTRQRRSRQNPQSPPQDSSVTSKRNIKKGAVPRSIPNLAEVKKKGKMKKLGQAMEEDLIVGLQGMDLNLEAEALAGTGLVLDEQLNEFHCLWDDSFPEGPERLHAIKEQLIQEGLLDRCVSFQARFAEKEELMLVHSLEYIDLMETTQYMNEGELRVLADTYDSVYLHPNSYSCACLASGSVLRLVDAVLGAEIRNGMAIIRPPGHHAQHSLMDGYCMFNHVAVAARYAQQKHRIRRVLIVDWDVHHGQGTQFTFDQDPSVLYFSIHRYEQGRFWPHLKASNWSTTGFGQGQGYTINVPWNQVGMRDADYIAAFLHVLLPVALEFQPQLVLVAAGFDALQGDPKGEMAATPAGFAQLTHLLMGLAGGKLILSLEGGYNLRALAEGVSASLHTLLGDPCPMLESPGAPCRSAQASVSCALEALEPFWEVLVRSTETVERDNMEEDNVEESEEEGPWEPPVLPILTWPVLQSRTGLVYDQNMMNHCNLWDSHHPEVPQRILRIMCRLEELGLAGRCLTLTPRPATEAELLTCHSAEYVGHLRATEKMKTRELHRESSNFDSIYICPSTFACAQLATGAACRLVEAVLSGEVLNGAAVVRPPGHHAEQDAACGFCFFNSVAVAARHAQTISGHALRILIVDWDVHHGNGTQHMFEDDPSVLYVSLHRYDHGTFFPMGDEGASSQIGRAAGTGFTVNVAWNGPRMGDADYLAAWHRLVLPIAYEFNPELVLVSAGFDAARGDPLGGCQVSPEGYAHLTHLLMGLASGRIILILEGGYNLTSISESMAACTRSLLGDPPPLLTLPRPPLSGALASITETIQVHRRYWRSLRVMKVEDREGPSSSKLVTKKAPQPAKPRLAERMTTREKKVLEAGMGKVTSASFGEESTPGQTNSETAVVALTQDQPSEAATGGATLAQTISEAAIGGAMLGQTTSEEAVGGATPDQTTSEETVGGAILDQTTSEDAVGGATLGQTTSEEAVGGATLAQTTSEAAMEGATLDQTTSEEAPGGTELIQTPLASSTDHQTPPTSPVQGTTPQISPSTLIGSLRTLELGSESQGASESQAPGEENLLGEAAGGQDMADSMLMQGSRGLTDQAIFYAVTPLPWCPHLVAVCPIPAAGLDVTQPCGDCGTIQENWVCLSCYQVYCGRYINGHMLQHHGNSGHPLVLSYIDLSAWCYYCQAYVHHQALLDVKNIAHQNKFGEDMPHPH

Histone deacetylase 3 [5] = biological target: T1, Histone deacetylase 3; assay: Inhibition of human recombinant HDAC3 using Ac-Leu-Gly-Lys (Ac)-AMC as substrate preincubated for 10 mins followed by substrate addition and measured after 45 mins by TECAN microtiter plate reader analysis
Histone deacetylase 8 = biological target: T4, Histone deacetylase 8 (Homo sapiens, UniProt Q9BY41); assay: Inhibition of human recombinant HDAC8 using Ac-Leu-Gly-Lys (Tfa)-AMC as substrate preincubated for 10 mins followed by substrate addition and measured after 45 mins by TECAN microtiter plate reader analysis
T4 sequence (Q9BY41 whole entry): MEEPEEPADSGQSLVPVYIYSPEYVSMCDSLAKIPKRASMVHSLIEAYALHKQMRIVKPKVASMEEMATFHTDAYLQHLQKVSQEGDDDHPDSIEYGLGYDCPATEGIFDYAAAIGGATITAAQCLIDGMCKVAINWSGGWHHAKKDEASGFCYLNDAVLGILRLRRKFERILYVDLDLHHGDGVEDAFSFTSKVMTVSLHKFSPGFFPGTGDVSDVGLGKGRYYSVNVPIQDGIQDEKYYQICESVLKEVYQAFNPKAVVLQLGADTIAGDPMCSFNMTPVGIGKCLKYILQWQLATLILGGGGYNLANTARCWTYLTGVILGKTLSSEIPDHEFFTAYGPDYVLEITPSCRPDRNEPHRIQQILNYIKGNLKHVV

Histone deacetylase 1 = Histone deacetylase 1 (Homo sapiens, UniProt Q13547); assay: Inhibition of human recombinant HDAC1 using Ac-Leu-Gly-Lys (Ac)-AMC as substrate preincubated for 10 mins followed by substrate addition and measured after 45 mins by TECAN microtiter plate reader analysis
Sequence of Histone deacetylase 1 (Q13547 whole entry): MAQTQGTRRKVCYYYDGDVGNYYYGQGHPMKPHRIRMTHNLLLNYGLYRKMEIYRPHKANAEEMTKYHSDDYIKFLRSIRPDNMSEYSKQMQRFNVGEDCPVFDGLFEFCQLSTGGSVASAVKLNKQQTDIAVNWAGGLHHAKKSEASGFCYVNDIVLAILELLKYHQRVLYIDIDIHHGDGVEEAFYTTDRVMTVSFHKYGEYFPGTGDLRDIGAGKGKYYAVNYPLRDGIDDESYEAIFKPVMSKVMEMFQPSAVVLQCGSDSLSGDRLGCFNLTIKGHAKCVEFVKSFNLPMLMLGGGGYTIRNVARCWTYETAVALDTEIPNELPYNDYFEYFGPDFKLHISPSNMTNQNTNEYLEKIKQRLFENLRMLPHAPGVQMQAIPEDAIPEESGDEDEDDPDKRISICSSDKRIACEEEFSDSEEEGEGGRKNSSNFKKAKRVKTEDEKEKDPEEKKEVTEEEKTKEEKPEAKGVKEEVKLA

Histone deacetylase 3 [6] = biological target: T1, Histone deacetylase 3; assay: Inhibition of human recombinant HDAC3 using Ac-Leu-Gly-Lys (Ac)-AMC as substrate at 0.1 uM preincubated for 10 mins followed by substrate addition and measured after 45 mins by TECAN microtiter plate reader analysis relative to control; settings: time 55.0 min
[7] = biological target: Programmed cell death protein 1/Programmed cell death 1 ligand 1 (Homo sapiens, UniProt Q9NZQ7); assay: as §1; format: protein-complex assay
Sequence of Programmed cell death protein 1/Programmed cell death 1 ligand 1 (Q15116 whole entry): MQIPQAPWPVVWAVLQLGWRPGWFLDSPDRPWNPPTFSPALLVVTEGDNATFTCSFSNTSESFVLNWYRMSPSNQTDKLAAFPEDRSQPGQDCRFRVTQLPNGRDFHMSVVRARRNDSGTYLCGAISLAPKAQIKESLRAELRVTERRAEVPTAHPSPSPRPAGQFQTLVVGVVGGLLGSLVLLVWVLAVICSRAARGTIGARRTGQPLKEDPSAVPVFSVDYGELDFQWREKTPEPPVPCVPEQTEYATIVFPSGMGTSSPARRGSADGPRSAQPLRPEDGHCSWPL
Sequence of Programmed cell death protein 1/Programmed cell death 1 ligand 1 (Q9NZQ7 whole entry): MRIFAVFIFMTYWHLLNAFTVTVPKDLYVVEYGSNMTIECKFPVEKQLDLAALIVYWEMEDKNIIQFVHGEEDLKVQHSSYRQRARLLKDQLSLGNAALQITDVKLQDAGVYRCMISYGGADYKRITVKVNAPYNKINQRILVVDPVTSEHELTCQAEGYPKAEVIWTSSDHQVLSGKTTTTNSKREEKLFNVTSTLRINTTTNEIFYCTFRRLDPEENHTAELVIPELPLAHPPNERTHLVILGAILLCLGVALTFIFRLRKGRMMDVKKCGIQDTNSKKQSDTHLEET

[8] = biological target: T5, Histone deacetylase 3 (Mus musculus) (UniProt O88895); assay: Inhibition of HDAC3 in mouse B16-F10 cells assessed as upregulation of Ac-H3 level at 3 uM incubated for 24 hrs by Western blotting analysis; format: cell-based
T5 sequence (whole entry): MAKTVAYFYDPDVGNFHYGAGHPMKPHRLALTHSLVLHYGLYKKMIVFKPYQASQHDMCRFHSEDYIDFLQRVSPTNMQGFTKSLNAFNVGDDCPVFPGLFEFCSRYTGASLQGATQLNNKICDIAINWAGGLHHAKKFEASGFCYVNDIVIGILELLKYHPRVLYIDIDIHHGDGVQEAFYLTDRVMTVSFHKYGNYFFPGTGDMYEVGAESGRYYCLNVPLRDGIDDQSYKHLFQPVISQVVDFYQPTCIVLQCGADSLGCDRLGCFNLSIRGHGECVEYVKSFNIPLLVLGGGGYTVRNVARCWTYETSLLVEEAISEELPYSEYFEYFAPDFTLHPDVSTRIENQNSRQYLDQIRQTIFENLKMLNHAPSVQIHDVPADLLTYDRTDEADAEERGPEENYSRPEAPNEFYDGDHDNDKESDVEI

MDA-MB-231 = assay: Antiproliferative activity against human MDA-MB-231 cells assessed as cell growth inhibition incubated for 48 hrs by MTT assay; format: functional, cell-based; settings: MDA-MB-231, 48 h
A-375 = assay: Antiproliferative activity against human A-375 cells assessed as cell growth inhibition incubated for 48 hrs by MTT assay; format: functional, cell-based; settings: A-375, 48 h
HepG2 = assay: Antiproliferative activity against human HepG2 cells assessed as cell growth inhibition incubated for 48 hrs by MTT assay; format: functional, cell-based; settings: HepG2, 48 h
4T1 = assay: Antiproliferative activity against mouse 4T1 cells assessed as cell growth inhibition incubated for 48 hrs by MTT assay; format: functional, cell-based; settings: 4T1, 48 h
B16-F10 = assay: Antiproliferative activity against mouse B16-F10 cells assessed as cell growth inhibition incubated for 48 hrs by MTT assay; format: functional, cell-based; settings: B16-F10, 48 h
HCT-116 = assay: Antiproliferative activity against human HCT-116 cells assessed as cell growth inhibition incubated for 48 hrs by MTT assay; format: functional, cell-based; settings: HCT-116, 48 h

| inhibition (Histone deacetylase 3 [1]) | inhibition (Histone deacetylase 3 [6]) | SMILES | inhibition [2] | inhibition [3] | other results |
| --- | --- | --- | --- | --- | --- |
| 55.8% |  | CCCNNC(=O)CCCCCCNCc1ccc(-c2cccc(-c3ccccc3)c2C)nc1OC | 12.5% | 89.8% |  |
| < 50% |  | CCCNNC(=O)c1cnc(NCCCNCc2ccc(-c3cccc(-c4ccccc4)c3C)nc2OC)cn1 | 18.8% | 80.9% |  |
| 79.4% | 41.9% | CCCNNC(=O)CCCCNCc1ccc(-c2cccc(-c3ccccc3)c2C)nc1OC | 54.4% | 92.5% | pIC50 [4]: < 5.00; pIC50 (Histone deacetylase 3 [5]): 6.95; pIC50 (Histone deacetylase 8): < 5.00; pIC50 (Histone deacetylase 1): 6.34; pIC50 [7]: 7.15 |
| < 50% |  | CCCNNC(=O)c1cnc(NCCNCc2ccc(-c3cccc(-c4ccccc4)c3C)nc2OC)nc1 | 44.5% | 95.1% |  |
| 74.3% | 46.8% | CCCNNC(=O)c1ccc(C(=O)NCCNCc2ccc(-c3cccc(-c4ccccc4)c3C)nc2OC)cc1 | 23.4% | 88.1% |  |
| 69.5% | 38.5% | CCCNNC(=O)c1ccc(NCCNCc2ccc(-c3cccc(-c4ccccc4)c3C)nc2OC)nn1 | 9.3% | 78.5% |  |
| 79.7% | 40.2% | CCCNNC(=O)c1cnc(NCCNCc2ccc(-c3cccc(-c4ccccc4)c3C)nc2OC)cn1 | 46% | 94.4% | pIC50 [4]: < 5.00; pIC50 (Histone deacetylase 3 [5]): 6.77; inhibition [8]: Active; pIC50 (MDA-MB-231): 4.86; pIC50 (Histone deacetylase 8): < 5.00; pIC50 (Histone deacetylase 1): 5.67; pIC50 (A-375): 4.99; pIC50 (HepG2): 5.15; pIC50 (4T1): 5.13; pIC50 (B16-F10): 5.16; pIC50 [7]: 7.19; pIC50 (HCT-116): 4.83 |
| 67.2% | 36% | CCCNNC(=O)CCNCc1ccc(-c2cccc(-c3ccccc3)c2C)nc1OC | 58.8% | 92.4% |  |
| 82% | 53.6% | CCCNNC(=O)CCCCCNCc1ccc(-c2cccc(-c3ccccc3)c2C)nc1OC | 37.3% | 92.7% | pIC50 [4]: < 5.00; pIC50 (Histone deacetylase 3 [5]): 6.97; pIC50 (Histone deacetylase 8): < 5.00; pIC50 (Histone deacetylase 1): 6.27; pIC50 [7]: 6.67 |
| < 50% |  | CCCNNC(=O)CC1CCN(Cc2ccc(-c3cccc(-c4ccccc4)c3C)nc2OC)CC1 | 25.7% | 89.4% |  |

More lines, now with the values behind:

| SMILES | inhibition (Histone deacetylase 3 [1]) | inhibition (Histone deacetylase 3 [6]) | inhibition [2] | inhibition [3] | other results |
| --- | --- | --- | --- | --- | --- |
| CCCNNC(=O)c1ccc(CNCc2ccc(-c3cccc(-c4ccccc4)c3C)nc2OC)cc1 |  |  | 11.3% | 42.4% |  |
| CCCNNC(=O)CNCc1ccc(-c2cccc(-c3ccccc3)c2C)nc1OC |  |  | 19.5% | 68.9% |  |
| CCCNNC(=O)c1ccc(NCc2ccc(-c3cccc(-c4ccccc4)c3C)nc2OC)cc1 |  |  | 1.83% | 7.61% |  |
| CCCNNC(=O)c1cnc(N2CC(NCc3ccc(-c4cccc(-c5ccccc5)c4C)nc3OC)C2)cn1 |  |  | 13.5% | 54.5% |  |
| CCCNNC(=O)C1CCN(Cc2ccc(-c3cccc(-c4ccccc4)c3C)nc2OC)CC1 | 71.3% | 33.2% | 21.7% | 82.7% |  |
| CCCNNC(=O)c1cnc(N2CCC(NCc3ccc(-c4cccc(-c5ccccc5)c4C)nc3OC)CC2)nc1 | < 50% |  | 3.6% | 71.7% |  |
| CCCNNC(=O)c1cnc(N2CC(NCc3ccc(-c4cccc(-c5ccccc5)c4C)nc3OC)C2)nc1 |  |  | 17.8% | 68.2% |  |
| CCCNNC(=O)c1cnc(N2CCC(NCc3ccc(-c4cccc(-c5ccccc5)c4C)nc3OC)CC2)cn1 |  |  | 7.82% | 62.6% |  |
| CCCNNC(=O)c1ccc(NCc2ccc(-c3cccc(-c4ccccc4)c3C)nc2OC)c(C)c1 |  |  | -0.25% | 4.65% |  |
| CCCNNC(=O)c1cnc(N(C)CCN(C)Cc2ccc(-c3cccc(-c4ccccc4)c3C)nc2OC)nc1 |  |  | 5.96% | 28.8% |  |
| CCCNNC(=O)c1ccc(NCCNCc2ccc(-c3cccc(-c4ccccc4)c3C)nc2OC)cc1 |  |  | 4.12% | 11.1% |  |
| CCCNNC(=O)CC1CCCN(Cc2ccc(-c3cccc(-c4ccccc4)c3C)nc2OC)C1 (stereo not given) |  |  | 4.75% | 59.1% |  |
